Test results as given in patent publication US20260182568A1, “DISINFECTANT AND PRESERVATIVE COMPOSITIONS” (BJBIOCHEM CO., LTD., priority 2023, published 2026).
Values after ≈ are worked out from the molar mass of the structure shown.

What was measured:
Malassezia restricta = assay: Sterilizing power (broth dilution MIC) of anti-dandruff hair care (antifungal) compositions
Aspergillus brasiliensis = assay: Disk diffusion antibacterial test; format: cell-based
Malassezia furfur = assay: Sterilizing power (broth dilution MIC) of anti-dandruff hair care (antifungal) compositions
Malassezia globosa = assay: as above
Escherichia coli = assay: Disk diffusion antibacterial test; format: cell-based
Pseudomonas aeruginosa = assay: Disk diffusion antibacterial test; format: cell-based
Candida albicans = assay: Disk diffusion antibacterial test; format: cell-based
Staphylococcus aureus = assay: Disk diffusion antibacterial test; format: cell-based
S. aureus = assay: Broth dilution MIC test of antimicrobial and preservative compositions; format: cell-based, Staphylococcus aureus; conditions: % only in method b353
Experimental: (§1) C. albicans was inoculated into Sabouraud dextrose broth and cultured at 25° C. for 24 hours. […] The liquid media used for E. coli, S. aureus, and P. aeruginosa (bacteria) were tryptic soy broth, and the liquid media used for C. albicans, and A. brasiliensis (fungi) were Sabouraud dextrose broth.

C. albicans = assay: as above; format: cell-based, Candida albicans; conditions: % only in method b353
Experimental: as §1

E. coli = assay: as above; format: cell-based, Escherichia coli; conditions: % only in method b353
Experimental: as §1

A. brasiliensis = assay: as above; format: cell-based, Aspergillus brasiliensis; conditions: % only in method b353
Experimental: as §1

P. aeruginosa = assay: as above; format: cell-based, Pseudomonas aeruginosa; conditions: % only in method b353
Experimental: as §1

[1] = comparison over mixing ratios of Formula 1 with PO, ZPT or CB
[2] = Test A (Formula 1 / Formula 2), Tables 2-3
[3] = Test B (Formula 1 / Formula 3), Tables 16-17
[4] = Formula 1 mixed with climbazole (CB) at mixing ratio (%), broth dilution
[5] = Formula 1 mixed with zinc pyrithione (ZPT) at mixing ratio (%), broth dilution

CCCCCCCCCCCCN(CC(O)CO)CC(O)CO (stereo not drawn) [3,3′-(dodecylimino)bispropane-1,2-diol]
sterilizing effect against Malassezia restricta (in words) (Malassezia restricta; [1]): lowest sterilizing effect
clear zone where strain growth was inhibited, A. brasiliensis (Aspergillus brasiliensis; 50 μl on disk, 1st repetition): 1.5 mm
clear zone where strain growth was inhibited, A. brasiliensis (Aspergillus brasiliensis; 50 μl on disk, 2nd repetition): 2 mm
clear zone where strain growth was inhibited, A. brasiliensis (Aspergillus brasiliensis; 50 μl on disk, 3rd repetition): 2 mm
clear zone where strain growth was inhibited, A. brasiliensis (Aspergillus brasiliensis; Mean of three repetitions): 1.8 mm
sterilizing effect against Malassezia furfur (in words) (Malassezia furfur; [1]): lowest sterilizing effect
sterilizing effect against Malassezia globosa (in words) (Malassezia globosa; [1]): lowest sterilizing effect
clear zone where strain growth was inhibited, E. coli (Escherichia coli; 50 μl on disk, 1st repetition): 2.5 mm
clear zone where strain growth was inhibited, E. coli (Escherichia coli; 50 μl on disk, 2nd repetition): 2.5 mm
clear zone where strain growth was inhibited, E. coli (Escherichia coli; 50 μl on disk, 3rd repetition): 3 mm
clear zone where strain growth was inhibited, E. coli (Escherichia coli; Mean of three repetitions): 2.6 mm
clear zone where strain growth was inhibited, P. aeruginosa (Pseudomonas aeruginosa; 50 μl on disk, 1st repetition): 1 mm
clear zone where strain growth was inhibited, P. aeruginosa (Pseudomonas aeruginosa; 50 μl on disk, 2nd repetition): 1.5 mm
clear zone where strain growth was inhibited, P. aeruginosa (Pseudomonas aeruginosa; 50 μl on disk, 3rd repetition): 1 mm
clear zone where strain growth was inhibited, P. aeruginosa (Pseudomonas aeruginosa; Mean of three repetitions): 1.2 mm
clear zone where strain growth was inhibited, C. albicans (Candida albicans; 50 μl on disk, 1st repetition): 5 mm
clear zone where strain growth was inhibited, C. albicans (Candida albicans; 50 μl on disk, 2nd repetition): 5 mm
clear zone where strain growth was inhibited, C. albicans (Candida albicans; 50 μl on disk, 3rd repetition): 6 mm
clear zone where strain growth was inhibited, C. albicans (Candida albicans; Mean of three repetitions): 5.3 mm
clear zone where strain growth was inhibited, S. aureus (Staphylococcus aureus; 50 μl on disk, 1st repetition): 2 mm
clear zone where strain growth was inhibited, S. aureus (Staphylococcus aureus; 50 μl on disk, 2nd repetition): 3 mm
clear zone where strain growth was inhibited, S. aureus (Staphylococcus aureus; 50 μl on disk, 3rd repetition): 2.5 mm
clear zone where strain growth was inhibited, S. aureus (Staphylococcus aureus; Mean of three repetitions): 2.5 mm

CCCCCCCCCCCCN(CC(O)CO)CC(O)CO (stereo not drawn) [Comparative Example1, 3,3′-(dodecylimino)bispropane-1,2-diol]
minimum inhibitory concentration (MIC), S. Aureus (S. aureus; [2]): 0.1%
minimum inhibitory concentration (MIC), S. Aureus (S. aureus; [3]): 0.1%
minimum inhibitory concentration (MIC), C. albicans (C. albicans; [2]): 0.05%
minimum inhibitory concentration (MIC), C. albicans (C. albicans; [3]): 0.05%
minimum inhibitory concentration (MIC), E. coli (E. coli; [2]): 0.1%
minimum inhibitory concentration (MIC), E. coli (E. coli; [3]): 0.1%
minimum inhibitory concentration (MIC), A. brasiliensis (A. brasiliensis; [2]): 0.1%
minimum inhibitory concentration (MIC), A. brasiliensis (A. brasiliensis; [3]): 0.1%
minimum inhibitory concentration (MIC), P. Aeruginosa (P. aeruginosa; [2]): 0.25%
minimum inhibitory concentration (MIC), P. Aeruginosa (P. aeruginosa; [3]): 0.25%

CC(C)(C)C(=O)C(Oc1ccc(Cl)cc1)n1ccnc1 (stereo not drawn) [climbazole]
MIC (Malassezia restricta; [4]): 4 µg/mL
MIC (Malassezia furfur; [4]): 20 µg/mL
MIC (Malassezia globosa; [4]): 1 µg/mL

Cc1cc(CC(C)CC(C)(C)C)n(O)c(=O)c1 (stereo not drawn) [piroctone olamine]
MIC (Malassezia restricta; Malassezia restricta): 18 µg/mL (≈ 75.8 µM)
MIC (Malassezia furfur; Malassezia furfur): 30 µg/mL (≈ 126 µM)
MIC (Malassezia globosa; Malassezia globosa): 4 µg/mL (≈ 16.9 µM)

zinc pyrithione
MIC (Malassezia restricta; [5]): 4 µg/mL
MIC (Malassezia furfur; [5]): 7 µg/mL
MIC (Malassezia globosa; [5]): 1 µg/mL
